Data taken from US9376425B2, “Heterocyclic compounds as MDM2 inhibitors for the treatment of cancer” (AMGEN INC., priority 2011, dated 2016).

Target: T1, human MDM2 (GST-hMDM2 1-188), interaction with biotinylated-p53 (1-83) (Homo sapiens, UniProt Q00987)
T1 construct: Amino acid residues 1-188 of human MDM2 were expressed; made in house; host or cells: Escherichia coli
Experiment: improved HTRF assay (HTRF2 assay), inhibition of HDM2-p53 interaction
Type: binding
Details: 0.2 nM GST-hMDM2, 0.5 nM biotinylated-p53, 100 mM KF
Procedure: Residues 1-83 of human p53 were expressed as an amino-terminal AviTag™-TrxA-6xHis fusion protein (biotinylated p53) in E. coli. Each protein was purified from cell paste by affinity chromatography.
Specifically, 10 uL of GST-hMDM2 was incubated with 10 ul of diluted compound (various concentrations, serially diluted) in 10% DMSO for 20 minutes at room temperature. 20 uL of biotinylated-p53 was added to the GST-hMDM2+ compound mixture, and then incubated at room temperature for 60 min. 10 uL of detection buffer consisting of SA-XLent, anti-GST cryptate antibody and KF was added to GST-hMDM2, biotinylated-p53 and compound reaction and left at room temperature to reach equilibrium for >4 hrs. The final concentration of DMSO in the reaction was 2%. Time-resolved fluorescence readings were measured on a microplate multilabel reader. Percentage of inhibition was calculated relative to nutlin-3.

T1 sequence (Q00987 1-188): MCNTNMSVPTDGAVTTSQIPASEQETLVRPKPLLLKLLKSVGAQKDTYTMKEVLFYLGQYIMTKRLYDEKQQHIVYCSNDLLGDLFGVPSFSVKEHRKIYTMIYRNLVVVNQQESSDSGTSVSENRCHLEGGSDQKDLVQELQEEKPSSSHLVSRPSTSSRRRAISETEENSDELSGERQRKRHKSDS

CC[C@@H](CS(=O)(=O)C1CCC1)N1C(=O)[C@@H](CC(=O)O)O[C@H](c2cccc(Cl)c2)[C@H]1c1ccc(Cl)cc1 (single isomer, unassigned) [Example 141, 2-((2R,5R,6R)-6-(3-chlorophenyl)-5-(4-chlorophenyl)-4-((S)-1-(cyclobutylsulfonyl)butan-2-yl)-3-oxomorpholin-2-yl)acetic acid or 2-((2S,5R,6R)-6-(3-chlorophenyl)-5-(4-chlorophenyl)-4-((S)-1-(cyclobutylsulfonyl)butan-2-yl)-3-oxomorpholin-2-yl)acetic acid]
IC50: 1 nM

CC[C@@H](CS(=O)(=O)C1CCC1)N1C(=O)[C@@H](CC(=O)O)O[C@H](c2cccc(Cl)c2)[C@H]1c1ccc(Cl)cc1 (single isomer, unassigned) [Example 142, 2-((2R,5R,6R)-6-(3-chlorophenyl)-5-(4-chlorophenyl)-4-((S)-1-(cyclobutylsulfonyl)butan-2-yl)-3-oxomorpholin-2-yl)acetic acid or 2-((2S,5R,6R)-6-(3-chlorophenyl)-5-(4-chlorophenyl)-4-((S)-1-(cyclobutylsulfonyl)butan-2-yl)-3-oxomorpholin-2-yl)acetic acid]
IC50: 7 nM

CC[C@@H](CS(=O)(=O)C(C)C)N1C(=O)[C@@H](CC(=O)O)O[C@H](c2cc(Cl)cc(Cl)c2)[C@H]1c1ccc(Cl)cc1 (single isomer, unassigned) [Example 145, 2-((2R,5R,6R)-5-(4-chlorophenyl)-6-(3,5-dichlorophenyl)-4-((S)-1-(isopropylsulfonyl)butan-2-yl)-3-oxomorpholin-2-yl)acetic acid or 2-((2S,5R,6R)-5-(4-chlorophenyl)-6-(3,5-dichlorophenyl)-4-((S)-1-(isopropylsulfonyl)butan-2-yl)-3-oxomorpholin-2-yl)acetic acid]
IC50: 8 nM

CC[C@@H](CS(=O)(=O)C(C)C)N1C(=O)[C@@H](CC(=O)O)O[C@H](c2cc(Cl)cc(Cl)c2)[C@H]1c1ccc(Cl)cc1 (single isomer, unassigned) [Example 146, 2-((2R,5R,6R)-5-(4-chlorophenyl)-6-(3,5-dichlorophenyl)-4-((S)-1-(isopropylsulfonyl)butan-2-yl)-3-oxomorpholin-2-yl)acetic acid or 2-((2S,5R,6R)-5-(4-chlorophenyl)-6-(3,5-dichlorophenyl)-4-((S)-1-(isopropylsulfonyl)butan-2-yl)-3-oxomorpholin-2-yl)acetic acid]
IC50: 15 nM

CC[C@@H](CS(=O)(=O)C(C)(C)C)N1C(=O)[C@@H](CC(=O)O)O[C@H](c2cc(Cl)cc(Cl)c2)[C@H]1c1ccc(Cl)cc1 (single isomer, unassigned) [Example 147, 2-((2R,5R,6R)-5-(4-chlorophenyl)-6-(3,5-dichlorophenyl)-4-((S)-1-(tert-butylsulfonyl)butan-2-yl)-3-oxomorpholin-2-yl)acetic acid or 2-((2S,5R,6R)-5-(4-chlorophenyl)-6-(3,5-dichlorophenyl)-4-((S)-1-(tert-butylsulfonyl)butan-2-yl)-3-oxomorpholin-2-yl)acetic acid]
IC50: 6 nM

CC[C@@H](CS(=O)(=O)C(C)(C)C)N1C(=O)[C@@H](CC(=O)O)O[C@H](c2cc(Cl)cc(Cl)c2)[C@H]1c1ccc(Cl)cc1 (single isomer, unassigned) [Example 148, 2-((2R,5R,6R)-5-(4-chlorophenyl)-6-(3,5-dichlorophenyl)-4-((S)-1-(tert-butylsulfonyl)butan-2-yl)-3-oxomorpholin-2-yl)acetic acid or 2-((2S,5R,6R)-5-(4-chlorophenyl)-6-(3,5-dichlorophenyl)-4-((S)-1-(tert-butylsulfonyl)butan-2-yl)-3-oxomorpholin-2-yl)acetic acid]
IC50: 7 nM

CC(C)S(=O)(=O)C[C@H](C1CC1)N1C(=O)[C@@H](CC(=O)O)O[C@H](c2cccc(Cl)c2)[C@H]1c1ccc(Cl)cc1 (single isomer, unassigned) [Example 156, 2-((2R,5R,6R)-6-(3-chlorophenyl)-5-(4-chlorophenyl)-4-((S)-1-cyclopropyl-2-(isopropylsulfonyl)ethyl)-3-oxomorpholin-2-yl)acetic acid or 2-((2S,5R,6R)-6-(3-chlorophenyl)-5-(4-chlorophenyl)-4-((S)-1-cyclopropyl-2-(isopropylsulfonyl)ethyl)-3-oxomorpholin-2-yl)acetic acid]
IC50: 1 nM

CC(C)S(=O)(=O)C[C@H](C1CC1)N1C(=O)[C@@H](CC(=O)O)O[C@H](c2cccc(Cl)c2)[C@H]1c1ccc(Cl)cc1 (single isomer, unassigned) [Example 157, 2-((2R,5R,6R)-6-(3-chlorophenyl)-5-(4-chlorophenyl)-4-((S)-1-cyclopropyl-2-(isopropylsulfonyl)ethyl)-3-oxomorpholin-2-yl)acetic acid or 2-((2S,5R,6R)-6-(3-chlorophenyl)-5-(4-chlorophenyl)-4-((S)-1-cyclopropyl-2-(isopropylsulfonyl)ethyl)-3-oxomorpholin-2-yl)acetic acid]
IC50: 1 nM

O=C(O)C[C@H]1O[C@H](c2cccc(Cl)c2)[C@@H](c2ccc(Cl)cc2)N([C@H](CN(c2ccccc2F)S(=O)(=O)C2CC2)C2CC2)C1=O (single isomer, unassigned) [Example 158, 2-((2R,5R,6R)-6-(3-chlorophenyl)-5-(4-chlorophenyl)-4-((S)-1-cyclopropyl-2-(N-(2-fluorophenyl)cyclopropanesulfonamido)ethyl)-3-oxomorpholin-2-yl)acetic acid or 2-((2S,5R,6R)-6-(3-chlorophenyl)-5-(4-chlorophenyl)-4-((S)-1-cyclopropyl-2-(N-(2-fluorophenyl)cyclopropanesulfonamido)ethyl)-3-oxomorpholin-2-yl)acetic acid]
IC50: < 1 nM

O=C(O)C[C@H]1O[C@H](c2cccc(Cl)c2)[C@@H](c2ccc(Cl)cc2)N([C@H](CN(c2ccccc2F)S(=O)(=O)C2CC2)C2CC2)C1=O (single isomer, unassigned) [Example 159, 2-((2R,5R,6R)-6-(3-chlorophenyl)-5-(4-chlorophenyl)-4-((S)-1-cyclopropyl-2-(N-(2-fluorophenyl)cyclopropanesulfonamido)ethyl)-3-oxomorpholin-2-yl)acetic acid or 2-((2S,5R,6R)-6-(3-chlorophenyl)-5-(4-chlorophenyl)-4-((S)-1-cyclopropyl-2-(N-(2-fluorophenyl)cyclopropanesulfonamido)ethyl)-3-oxomorpholin-2-yl)acetic acid]
IC50: < 1 nM

CC[C@@H](CS(=O)(=O)C(C)(C)C)N1C(=O)[C@@H](CC(=O)O)O[C@H](c2cccc(Cl)c2)[C@@]1(C)c1ccc(Cl)cc1 (single isomer, unassigned) [Example 162, 2-((2R,5R,6R)-4-((S)-1-(tert-butylsulfonyl)butan-2-yl)-6-(3-chlorophenyl)-5-(4-chlorophenyl)-5-methyl-3-oxomorpholin-2-yl)acetic acid or 2-((2S,5R,6R)-4-((S)-1-(tert-butylsulfonyl)butan-2-yl)-6-(3-chlorophenyl)-5-(4-chlorophenyl)-5-methyl-3-oxomorpholin-2-yl)acetic acid]
IC50: 6250 nM

CC[C@@H](CS(=O)(=O)C(C)(C)C)N1C(=O)[C@@H](CC(=O)O)O[C@H](c2cccc(Cl)c2)[C@@]1(C)c1ccc(Cl)cc1 (single isomer, unassigned) [Example 163, 2-((2R,5R,6R)-4-((S)-1-(tert-butylsulfonyl)butan-2-yl)-6-(3-chlorophenyl)-5-(4-chlorophenyl)-5-methyl-3-oxomorpholin-2-yl)acetic acid or 2-((2S,5R,6R)-4-((S)-1-(tert-butylsulfonyl)butan-2-yl)-6-(3-chlorophenyl)-5-(4-chlorophenyl)-5-methyl-3-oxomorpholin-2-yl)acetic acid]
IC50: 6620 nM

CC[C@@H](CN(c1ccccc1F)S(=O)(=O)C1(C)CC1)N1C(=O)[C@@H](CC(=O)O)O[C@H](c2cccc(Cl)c2)[C@H]1c1ccc(Cl)cc1 (single isomer, unassigned) [Example 174, 2-((2R,5R,6R)-6-(3-chlorophenyl)-5-(4-chlorophenyl)-4-((S)-1-(N-(2-fluorophenyl)-1-methylcyclopropanesulfonamido)butan-2-yl)-3-oxomorpholin-2-yl)acetic acid or 2-((2S,5R,6R)-6-(3-chlorophenyl)-5-(4-chlorophenyl)-4-((S)-1-(N-(2-fluorophenyl)-1-methylcyclopropanesulfonamido)butan-2-yl)-3-oxomorpholin-2-yl)acetic acid]
IC50: < 1 nM

CC[C@@H](CN(c1ccccc1F)S(=O)(=O)C1(C)CC1)N1C(=O)[C@@H](CC(=O)O)O[C@H](c2cccc(Cl)c2)[C@H]1c1ccc(Cl)cc1 (single isomer, unassigned) [Example 175, 2-((2R,5R,6R)-6-(3-chlorophenyl)-5-(4-chlorophenyl)-4-((S)-1-(N-(2-fluorophenyl)-1-methylcyclopropanesulfonamido)butan-2-yl)-3-oxomorpholin-2-yl)acetic acid or 2-((2S,5R,6R)-6-(3-chlorophenyl)-5-(4-chlorophenyl)-4-((S)-1-(N-(2-fluorophenyl)-1-methylcyclopropanesulfonamido)butan-2-yl)-3-oxomorpholin-2-yl)acetic acid]
IC50: < 1 nM
